According to ChEMBL document CHEMBL1201862, “PubChem BioAssay data set” (2004):
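All cell lines were grown in 96-well plates and treated with compound for 48 hours. GI50: concentration for 50% inhibition of growth.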 Active and inactive are the calls of the source. Cut-off read from the data, not from the text of the source: active = GI50 up to about 1.1 µM and inactive = higher.

Legend:
Experiment in all cases: NCI-60 cell line screen, 48 h
CAKI-1 = tested on: CAKI-1
SK-MEL-2 = tested on: SK-MEL-2
A549 = tested on: A549
SK-MEL-28 = tested on: SK-MEL-28
OVCAR-5 = tested on: OVCAR-5
HOP-92 = tested on: HOP-92
HT-29 = tested on: HT-29
DU-145 = tested on: DU-145
NCI-H460 = tested on: NCI-H460
CCRF-CEM = tested on: CCRF-CEM
RPMI-8226 = tested on: RPMI-8226
SNB-19 = tested on: SNB-19
PC-3 = tested on: PC-3
SF-539 = tested on: SF-539
K562 = tested on: K562
SW-620 = tested on: SW-620
UACC-62 = tested on: UACC-62
NCI-H226 = tested on: NCI-H226
A498 = tested on: A498
BT-549 = tested on: BT-549

Measured: GI50

O=C1NCCCc2nonc21
inactive: CAKI-1 > 100 µM | SK-MEL-2 > 100 µM | A549 > 100 µM | SK-MEL-28 > 100 µM | OVCAR-5 > 100 µM | HOP-92 > 100 µM | HT-29 > 100 µM | DU-145 > 100 µM | NCI-H460 > 100 µM | CCRF-CEM > 100 µM | RPMI-8226 > 100 µM | SNB-19 > 100 µM | PC-3 > 100 µM | SF-539 > 100 µM | K562 > 100 µM | SW-620 > 100 µM | UACC-62 > 100 µM | NCI-H226 > 100 µM

Cc1nnc2sc(Cc3cnc(N)s3)nn12
inactive: SK-MEL-2 > 100 µM | A549 > 100 µM | SK-MEL-28 > 100 µM | OVCAR-5 > 100 µM | HOP-92 > 100 µM | HT-29 > 100 µM | DU-145 > 100 µM | NCI-H460 > 100 µM | CCRF-CEM > 100 µM | RPMI-8226 > 100 µM | SNB-19 > 100 µM | PC-3 > 100 µM | SF-539 > 100 µM | K562 > 100 µM | SW-620 > 100 µM | UACC-62 > 100 µM | NCI-H226 77.6 µM

N#Cc1ccc(/C=N/NC(=O)CSCC(=O)N/N=C/c2ccc(C#N)cc2)cc1
inactive: CAKI-1 > 100 µM | SK-MEL-2 > 100 µM | A549 > 100 µM | SK-MEL-28 > 100 µM | OVCAR-5 > 100 µM | HOP-92 > 100 µM | HT-29 > 100 µM | A498 > 100 µM | DU-145 > 100 µM | NCI-H460 > 100 µM | RPMI-8226 > 100 µM | SNB-19 > 100 µM | PC-3 > 100 µM | SF-539 > 100 µM | K562 > 100 µM | SW-620 > 100 µM | UACC-62 > 100 µM | NCI-H226 > 100 µM

CCOc1cc(/C=C/C=C/C=C/c2ccc(N(C)C)cc2)[s+]c2ccccc12
inactive: CAKI-1 26.5 µM | SK-MEL-2 37.3 µM | A549 21 µM | SK-MEL-28 19.1 µM | OVCAR-5 > 100 µM | HOP-92 25.1 µM | HT-29 28.7 µM | A498 > 100 µM | NCI-H460 46.9 µM | CCRF-CEM 4.88 µM | RPMI-8226 6.78 µM | SNB-19 24.1 µM | SF-539 18.2 µM | K562 20.9 µM | SW-620 30.3 µM | UACC-62 27.8 µM | NCI-H226 11.1 µM

CC(C)=C[C@H]1CCC2(OCCO2)[C@]1(C)COCc1ccccc1
inactive: CAKI-1 32 µM | SK-MEL-2 25.5 µM | A549 33.3 µM | SK-MEL-28 60.5 µM | OVCAR-5 18.4 µM | A498 23.7 µM | NCI-H460 22.3 µM | CCRF-CEM 16.1 µM | RPMI-8226 18.2 µM | SNB-19 37.7 µM | PC-3 39.9 µM | BT-549 42.7 µM | SF-539 21.7 µM | SW-620 29.1 µM | NCI-H226 14.1 µM

COc1ccc2c(c1)CCN1C3=C(CCC3)C(=O)C[C@@H]21
inactive: CAKI-1 > 100 µM | SK-MEL-2 > 100 µM | A549 > 100 µM | SK-MEL-28 > 100 µM | OVCAR-5 89.9 µM | HOP-92 > 100 µM | HT-29 > 100 µM | A498 62.2 µM | NCI-H460 > 100 µM | CCRF-CEM > 100 µM | RPMI-8226 > 100 µM | SNB-19 > 100 µM | SF-539 > 100 µM | K562 > 100 µM | SW-620 > 100 µM | UACC-62 > 100 µM | NCI-H226 > 100 µM

C=CC1(c2ccc(Cl)c(Cl)c2)OCCO1
inactive: SK-MEL-2 79.4 µM | A549 > 100 µM | SK-MEL-28 > 100 µM | OVCAR-5 > 100 µM | HOP-92 23.2 µM | HT-29 88.5 µM | DU-145 > 100 µM | NCI-H460 > 100 µM | CCRF-CEM > 100 µM | RPMI-8226 > 100 µM | SNB-19 > 100 µM | PC-3 > 100 µM | K562 27.7 µM | SW-620 > 100 µM | UACC-62 > 100 µM | NCI-H226 71.8 µM

CSc1ncnc2c1CCN2
inactive: CAKI-1 > 10 µM | SK-MEL-2 5.86 µM | A549 > 10 µM | SK-MEL-28 > 10 µM | OVCAR-5 > 10 µM | HOP-92 3.96 µM | HT-29 7.96 µM | DU-145 > 10 µM | NCI-H460 5.37 µM | CCRF-CEM > 10 µM | RPMI-8226 > 10 µM | SNB-19 > 10 µM | PC-3 > 10 µM | K562 4.93 µM | SW-620 7.96 µM | UACC-62 3.81 µM | NCI-H226 > 10 µM

[N-]=[N+]=Nc1cc(=O)[nH]c2ccccc12
inactive: CAKI-1 > 100 µM | SK-MEL-2 > 100 µM | A549 > 100 µM | SK-MEL-28 > 100 µM | OVCAR-5 > 100 µM | HOP-92 85.3 µM | HT-29 > 100 µM | CCRF-CEM > 100 µM | RPMI-8226 81.8 µM | SNB-19 > 100 µM | PC-3 39.4 µM | BT-549 83.2 µM | SF-539 > 100 µM | K562 > 100 µM | SW-620 > 100 µM | UACC-62 44.2 µM | NCI-H226 45.9 µM

COC(=O)C12C3C4C5(C(=O)OC)C(C1C35C(=O)N(C(C)C)C(C)C)C42C(=O)N(C(C)C)C(C)C (stereo not drawn)
inactive: CAKI-1 > 50 µM | SK-MEL-2 > 50 µM | A549 > 45.9 µM | SK-MEL-28 > 50 µM | OVCAR-5 > 50 µM | HOP-92 > 50 µM | HT-29 > 50 µM | A498 > 50 µM | NCI-H460 > 37.6 µM | CCRF-CEM > 50 µM | RPMI-8226 > 36.3 µM | SNB-19 > 50 µM | SF-539 > 50 µM | K562 > 47.4 µM | SW-620 > 25.5 µM | UACC-62 > 50 µM | NCI-H226 > 50 µM

COc1cc2c(cc1O)[C@H](C)C(c1ccccc1OC)O2 (stereo partly drawn)
inactive: CAKI-1 5.98 µM | SK-MEL-2 3.05 µM | A549 5.33 µM | SK-MEL-28 6.41 µM | OVCAR-5 75.2 µM | HOP-92 8.2 µM | HT-29 6.7 µM | A498 4.49 µM | NCI-H460 2.08 µM | CCRF-CEM 4.21 µM | RPMI-8226 2.64 µM | SNB-19 3.98 µM | SF-539 5.11 µM | K562 2.81 µM | SW-620 3.27 µM | UACC-62 3.33 µM | NCI-H226 22.4 µM

CC(C)C1NC(=O)[C@H](C)OC(=O)[C@@H](C(C)C)NC(=O)[C@@H](C)OC(=O)C(C(C)C)NC(=O)[C@H](C)OC1=O (stereo partly drawn)
inactive: CAKI-1 > 100 µM | SK-MEL-2 > 100 µM | A549 > 100 µM | SK-MEL-28 > 100 µM | OVCAR-5 > 100 µM | HOP-92 > 100 µM | HT-29 > 100 µM | A498 > 100 µM | NCI-H460 > 79.4 µM | CCRF-CEM > 100 µM | RPMI-8226 > 47.9 µM | SNB-19 > 100 µM | SF-539 > 50.9 µM | K562 > 41.7 µM | SW-620 > 28.1 µM | UACC-62 > 100 µM | NCI-H226 > 100 µM
